Patent US20230076733A1, “Combination Therapy” (AGENCY FOR SCIENCE, TECHNOLOGY AND RESEARCH, priority 2020, published 2023)
pIC50: −log10 of the molar value. “And” between values parts separate entries of the source, which are not always exact repeats. Equal values may be shown once.

How the values were obtained:
Type in all cases: cell-based
AsPC-1 cells = assay: expression of DNA repair genes by qRT-PCR, AsPC-1 cells; conditions: 100 nM for 48 hr versus DMSO
Method: (§1) Tumors were homogenised in RLT buffer using a polytron homogenizer. Total RNA was isolated using RNAeasy kit (Qiagen, Germany) according to manufacturer's protocol. For qPT-PCR, RNA was reverse transcribed with iScript reverse transcriptase (BioRAD, Hercules, Calif., USA). Real time quantitative PCR (qPCR) was performed using SsoFast EvaGreen assay Supermix from BioRad (Hercules, Calif., USA). EPN1 and ACTB were used as housekeeping genes.
(§2) Inhibition of Wnt signalling reduces expression of DNA repair genes: HPAF-II, AsPC-1 or PaTu899S cells were treated with either DMSO or 100 nM compound of Formula (I) for 48 hr. The expression of the indicated genes was measured by qRT-PCR. FIGS. 14-16 illustrates the results.

HPAF-II cells = assay: expression of DNA repair genes by qRT-PCR, HPAF-II cells; conditions: 100 nM for 48 hr versus DMSO
Method: as §1, §2

PaTu899S cells = assay: expression of DNA repair genes by qRT-PCR, PaTu899S cells; conditions: 100 nM for 48 hr versus DMSO
Method: as §1, §2

EGI-1 cells = assay: soft agar colony formation assay, EGI-1 cells; conditions: for Colony count: duplicate wells; for pIC50: EGI-1 cells, pre-determined by dose-response assay
Method: The IC50 and EC50 values for each combination partner (a) and (b) with the specific cell lines are determined from the response plot. A dose-response assay for each combination partner and the combination at different concentrations based on the IC50 values of each combination partner was performed. Computed EC50-EC95 values were then generated by a software (as disclosed herein) based on the drug concentration and the respective colony growth numbers.
6. Cell lines used and number of cells seeded per well
(1) Base Layer—0.6% Agar per 300 μL per well.
Microwave the agar for 1-2 min so that it is completely melted. Add 5.4 ml of the melted agar into 21.6 ml of pre-warmed media (All media and agar preparation is made in excess for 2.5 plates). Aliquot 300 μl of the suspension into each well, avoiding the first and last columns of the plates. Fill the first and last columns of wells with 500 μl of sterile water or phosphate buffered saline. Incubate the plates in 37° C. incubator for 45 min-1 hr to allow agar to solidify.
(2) Middle Layer— 0.3% Agar plus corresponding number of cells per well
Trypsinize the adherent cells and suspend them in 5 ml of media. Determine the number of cells in the suspension and calculate the volume of cell suspension required for seeding. Mix the agar and media together first, excluding the volume of cell suspension. Add the cell suspension last into the mixture. Mix well and aliquot 250 μl into each well containing the base layer. Incubate the plates in a 37° C. incubator for 1-1.5 hrs to allow the agar to solidify.
Prepare the required concentration of compounds based on the IC50 values of each drug.
(Pre-determine the IC50 values for each drug with the corresponding cell-line using a dose-response assay)
Row A& B: Aliquot 250 μl of diluted Drug A per well
Row C&D: Aliquot 250 μl of diluted Drug B per well
Row E& F: Aliquot 250 μl of diluted Drug A and B mixed at 1:1 ratio for each well
Assay Results Analysis Method • 1. Score the colonies after 2 to 3 weeks depending on the colony forming status for different cell line. • 2. Before scoring the colonies, add 35 μl MTT (5 mg/ml) to the wells with cells and incubate at 37° C. for 2-3 hrs depending on the intensity of colour development. • 3. Once the colonies are stained, count the total number of colonies formed using the Oxford Optronix GelCount® instrument. • 4. Average the total number of colonies obtained for each drug dose point and represent it as a fraction over the control. This represents the fraction of colony growth. […] Incorporate the fraction of inhibition and the corresponding dose values into the Chou Talalay Software available online (http://www.combosyn.com/) to obtain the combination index values. • 6. The combination index values will give an indication as to whether the combined drugs are synergistic, antagonistic or additive in the treated cells, as shown in Table 2 below.
FIG. 2 illustrates a dose-response assay plate containing EGI-1 cells (Test 1) after testing compounds at different concentrations based on the IC50 values of each compound. EGI-1 is a cell line established from cholangiocarcinoma (bile duct adenocarcinoma).

[1] = EGI-1, Test 1, 0.25x IC50: dose Olaparib 2.16362, Ex 1 0.00687, combination both 1:1
[2] = EGI-1, Test 1, 0.5x IC50: dose Olaparib 4.32725, Ex 1 0.01375, combination both 1:1
[3] = EGI-1, Test 1, 1x IC50: dose Olaparib 8.6545, Ex 1 0.0275, combination both 1:1
[4] = EGI-1, Test 1, 2x IC50: dose Olaparib 17.309, Ex 1 0.055, combination both 1:1
[5] = EGI-1, Test 1, 4x IC50: dose Olaparib 34.618, Ex 1 0.11, combination both 1:1
[6] = EGI-1, Test 2, 0.25x IC50: dose Olaparib 2.16362, Ex 1 0.00687, combination both 1:1
[7] = EGI-1, Test 2, 0.5x IC50: dose Olaparib 4.32725, Ex 1 0.01375, combination both 1:1
[8] = EGI-1, Test 2, 1x IC50: dose Olaparib 8.6545, Ex 1 0.0275, combination both 1:1
[9] = EGI-1, Test 2, 2x IC50: dose Olaparib 17.309, Ex 1 0.055, combination both 1:1
[10] = EGI-1, Test 2, 4x IC50: dose Olaparib 34.618, Ex 1 0.11, combination both 1:1

Row | pIC50 (EGI-1 cells) | pIC50 (EGI-1 cells; Homo sapiens) | Structure (SMILES) | expression of DNA repair genes BRCA1, BRCA2, FANCD2, FANCG, RAD51 and XRCC3 (AsPC-1 cells) | expression of DNA repair genes BRCA1, BRCA2, FANCD2, FANCG, RAD51 and XRCC3 (HPAF-II cells) | expression of DNA repair genes BRCA1, BRCA2, FANCD2, FANCG, RAD51 and XRCC3 (PaTu899S cells) | Colony count (EGI-1 cells; [1]) | Colony count (EGI-1 cells; [2]) | Colony count (EGI-1 cells; [3]) | Colony count (EGI-1 cells; [4]) | Colony count (EGI-1 cells; [5]) | Colony count (EGI-1 cells; [6]) | Colony count (EGI-1 cells; [7]) | Colony count (EGI-1 cells; [8]) | Colony count (EGI-1 cells; [9]) | Colony count (EGI-1 cells; [10])
1 | 7.56 |  | Cn1c(=O)c2c(ncn2CC(=O)Nc2ccc(-c3ccccc3)nn2)n(C)c1=O [Ex 1, 2-(1,3-dimethyl-2,6-dioxo-2,3-dihydro-1H-purin-7 (6H)-yl)-N-(6-phenylpyridazin-3-yl)acetamide] | inhibited the expression of DNA repair genes | inhibited the expression of DNA repair genes | inhibited the expression of DNA repair genes | 1742 and 1591 | 1351 | 985 and 912 | 608 and 646 | 515 and 465 | 1488 and 1451 | 1242 and 1139 | 816 and 771 | 568 and 476 | 434 and 412
2 |  | 5.06 | O=C(c1cc(Cc2n[nH]c(=O)c3ccccc23)ccc1F)N1CCN(C(=O)C2CC2)CC1 [Olaparib, reference compound] |  |  |  | 1658 and 1605 | 1362 and 1300 | 935 and 908 | 454 and 489 | 209 and 197 | 1591 and 1717 | 1403 and 1442 | 856 and 1052 | 445 and 482 | 144 and 198
